Read-outs that look alike come from different tables or passages of the source.
Key:
Assay type in all cases: cell-based, human
Nrf2 [1] = experiment: Expression of Nrf2-regulated genes GCLM and NQO1 by qRT-PCR in Beas-2B cells (screen); details: Homo sapiens, BEAS-2B, 16 h
Protocol: To investigate the potency of the presently disclosed chalcone derivatives to activate Nrf2, the expression of antioxidant genes, GCLM and NADPH-NQO1, two well characterized transcriptional targets of Nrf2, were measured as surrogate markers. By “marker” is meant any protein or polynucleotide having an alteration in expression level or activity that is associated with a disease, disorder, or condition. It has been previously shown that oxidants or small molecule activators of Nrf2 increase GCLM and NQO1 in cells or tissues of wild-type, but not in Nrf2-deficient mice. Osburn, W. O., et al., Genetic or pharmacologic amplification of Nrf2 signaling inhibits acute inflammatory liver injury in mice. Toxicol. Sci. 2008, 104(1), 218-227. […]
RNA was isolated and gene expression was measured after 16 h.
Total RNA was extracted from cells/tissue using Qiagen RNeasy kit (Qiagen Corporation, Valencia, Calif.) and reverse transcription was performed by using random hexamers and MultiScribe reverse transcriptase according to the manufacturer's recommendations (Applied Biosystems, Foster City, Calif., USA). Quantitative real-time RT-PCR analyses of Nrf2, NQO1, HO1, and GCLM were performed by using Assay-on-Demand primers and probe sets from Applied Biosystems. Assays were performed using the ABI 7000 Taqman system (Applied Biosystems, Foster City, Calif.). β-actin was used for normalization.

Beas-2B cells = experiment: Cell viability / cytotoxicity (MTT assay) in Beas-2B cells; details: 24 h, DMSO = 100
Protocol: Concurrent with the gene expression analysis, the cytotoxicity of the chalcone derivatives was determined using the MTT assay.
Mad. Chem. 2007, 15, 2952-2962. […] Four hours before the end of incubation, the medium was removed and 100 μL of MTT (5 mg/mL in serum free medium) was added to each well. The MTT was removed after 4 h, cells were washed with PBS, and 100 μL DMSO was added to each well to dissolve the water-insoluble MTT-formazan crystals. The absorbance was recorded at 570 nm in a plate reader (Molecular Devices, Sunnyvale, Calif.).

Nrf2 [2] = experiment: Nrf2-regulated gene expression with or without N-acetyl-cysteine in Beas-2B cells; details: NAC 10 mM alone, 24 h
Protocol: Cells were harvested 24 h after the treatment and the Nrf2-driven expression of NQO1, HO-1, and GCLM was quantified. β-actin was used for normalization. Data are representative of three independent experiments. Values shown are mean±SD of triplicate wells (P≦0.05);
The activation of Nrf2 by various electrophiles and compounds that are Michael acceptors is attributed to changes in ROS production and or redox environment and or direct cysteine modification in Keap1. Nguyen, T., et al., The Nrf2-antioxidant response element signaling pathway and its activation by oxidative stress. J. Biol. Chem. 2009, 284, 13291-13295; McMahon, M., et al., Keap1 perceives stress via three sensors for the endogenous signaling molecules nitric oxide, zinc, and alkenals. Proc. Natl. Acad. Sci. U.S.A. 2010, 107, 18838-18843. Whether 2b activates Nrf2 by generating ROS or redox changes also was examined.

[3] = DMSO = 1.0 (Table 2), read-out: Relative Fold Change GCLM
[4] = DMSO = 1.0 (Table 2), read-out: Relative Fold Change NQO1
[5] = DMSO = 1 (Table 3), read-out: Relative Fold Change GCLM
[6] = DMSO = 1 (Table 3), read-out: Relative Fold Change NQO1

SMILES	fold induction at 10 µM (Nrf2 [1]; [3])	fold induction at 10 µM (Nrf2 [1]; [4])	fold induction at 10 µM (Nrf2 [1]; [5])	fold induction at 10 µM (Nrf2 [1]; [6])	% Cell Viability (Beas-2B cells)	induction of Nrf2-regulated genes, NAC alone (Nrf2 [2])
O=C(/C=C/c1ccccc1C(F)(F)F)c1ccccc1 [Compound 2a, (E)-1-phenyl-3-(2-(trifluoromethyl)phenyl)prop-2-en-1-one]	5	5.3	5	5.3	144.8%	
COc1cccc(C(=O)/C=C/c2ccccc2C(F)(F)F)c1 [Compound 2c, (E)-1-(3-methoxyphenyl)-3-(2-(trifluoromethyl)phenyl)prop-2-en-1-one]	5.6	4.3	5.6	4.3	96.6%	
COc1ccc(C(=O)/C=C/c2ccccc2C(F)(F)F)cc1 [Compound 2d, (E)-1-(4-methoxyphenyl)-3-(2-(trifluoromethyl)phenyl)prop-2-en-1-one]	5.4	4.6	5.4	4.6	96%	
COc1ccc(C(=O)/C=C/c2ccccc2C(F)(F)F)c(OC)c1 [Compound 2e, (E)-1-(2,4-dimethoxyphenyl)-3-(2-(trifluoromethyl)phenyl)prop-2-en-1-one]	5.4	4.5	5.4	4.5	105%	
COc1cccc(OC)c1C(=O)/C=C/c1ccccc1C(F)(F)F [Compound 2f, (E)-1-(2,6-dimethoxyphenyl)-3-(2-(trifluoromethyl)phenyl)prop-2-en-1-one]	5.7	5.3	5.7	5.3	101.1%	
COc1cc(OC)cc(C(=O)/C=C/c2ccccc2C(F)(F)F)c1 [Compound 2i, (E)-1-(3,5-dimethoxyphenyl)-3-(2-(trifluoromethyl)phenyl)prop-2-en-1-one]	4	3.7	4	3.7	87.1%	
COc1ccc(C(=O)/C=C/c2ccccc2C(F)(F)F)c(OC)c1OC [Compound 2k, (E)-1-(2,3,4-trimethoxyphenyl)-3-(2-(trifluoromethyl)phenyl)prop-2-en-1-one]	5.4	4.1	5.4	4.1	101.6%	
COc1cc(OC)c(C(=O)/C=C/c2ccccc2C(F)(F)F)c(OC)c1 [Compound 2l, (E)-1-(2,4,6-trimethoxyphenyl)-3-(2-(trifluoromethyl)phenyl)prop-2-en-1-one]	4.4	4.3	4.4	4.3	145.3%	
COc1cccc(C(=O)/C=C/c2cccc(C(F)(F)F)c2)c1 [Compound 3c, (E)-1-(3-methoxyphenyl)-3-(3-(trifluoromethyl)phenyl)prop-2-en-1-one]	4.6	3.5	4.6	3.5	95.3%	
COc1cc(OC)cc(C(=O)/C=C/c2cccc(C(F)(F)F)c2)c1 [Compound 3i, (E)-1-(3,5-dimethoxyphenyl)-3-(3-(trifluoromethyl)phenyl)prop-2-en-1-one]	3.8	3.9	3.8	3.9	108.2%	
COc1ccccc1C(=O)/C=C/c1ccc(C(F)(F)F)cc1 [Compound 4b, (E)-1-(2-methoxyphenyl)-3-(4-(trifluoromethyl)phenyl)prop-2-en-1-one]	4.3	5.4	4.3	5.4	91%	
COc1ccc(C(=O)/C=C/c2ccc(C(F)(F)F)cc2)cc1 [Compound 4d, (E)-1-(4-methoxyphenyl)-3-(4-(trifluoromethyl)phenyl)prop-2-en-1-one]	3.5	4.6	3.5	4.6	104.1%	
COc1ccc(C(=O)/C=C/c2ccc(C(F)(F)F)cc2)c(OC)c1 [Compound 4e, (E)-1-(2,4-dimethoxyphenyl)-3-(4-(trifluoromethyl)phenyl)prop-2-en-1-one]	5	4.8	5	4.8	92.6%	
COc1ccc(OC)c(C(=O)/C=C/c2ccc(C(F)(F)F)cc2)c1 [Compound 4g]	4.1	4	4.1	4	91.6%	
COc1ccc(C(=O)/C=C/c2ccc(C(F)(F)F)cc2)c(OC)c1OC [Compound 4j]	4.1	3.9	4.1	3.7	100.1%	
COc1cccc(OC)c1C(=O)/C=C/c1ccccc1[N+](=O)[O-] [Compound 5f]	4.1	3.7	4.1	3.7	75.8%	
COc1cc(OC)cc(C(=O)/C=C/c2ccccc2[N+](=O)[O-])c1 [Compound 5i]	3.4	4.1	3.4	4.1	90.9%	
CC(=O)N[C@@H](CS)C(=O)O [NAC, N-acetyl-cysteine, reference compound]						no induction of Nrf2-regulated genes
C[S+]([O-])CCCCN=C=S (stereo not shown) [Sulforaphane, reference compound]	2.7	3.6	2.7	3.6	97.3%	

Source: patent US20140088052A1, “CHALCONE DERIVATIVES AS NRF2 ACTIVATORS” (THE JOHNS HOPKINS UNIVERSITY, priority 2011, published 2014)
